Source: patent publication US20250250230A1, “HETEROCYCLIC COMPOUND” (TAKEDA PHARMACEUTICAL COMPANY LIMITED, priority 2022, published 2025)

Target: T1, human orexin type 2 receptor (Homo sapiens, UniProt O43614)
T1 construct: expressed in transfected cells
T1 sequence (O43614 1-444): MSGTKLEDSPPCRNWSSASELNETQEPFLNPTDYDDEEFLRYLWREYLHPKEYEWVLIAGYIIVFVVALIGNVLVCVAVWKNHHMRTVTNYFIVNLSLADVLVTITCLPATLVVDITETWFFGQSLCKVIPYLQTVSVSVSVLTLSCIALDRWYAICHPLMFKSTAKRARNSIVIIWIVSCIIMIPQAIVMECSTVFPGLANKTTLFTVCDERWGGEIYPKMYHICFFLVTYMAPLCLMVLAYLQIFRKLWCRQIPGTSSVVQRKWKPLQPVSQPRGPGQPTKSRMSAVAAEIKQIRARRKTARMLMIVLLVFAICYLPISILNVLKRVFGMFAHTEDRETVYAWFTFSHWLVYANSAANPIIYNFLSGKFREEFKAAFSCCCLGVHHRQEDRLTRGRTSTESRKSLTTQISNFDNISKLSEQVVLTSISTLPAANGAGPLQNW
Assay: Measurement of orexin type 2 receptor agonist activity (calcium fluorescence, Fluo-4 AM, FDSS)
Format: cell-based
Details: test compound 3 μM; CHO cells expressing human OX2 receptor; DMSO = 0%, orexin A (human) = 100%
From the text: To obtain a cell clone stably expressing human orexin type 2 receptor, human orexin type 2 receptor cDNA was inserted into pcDNA3.1(+) plasmid vector (Invitrogen), and a plasmid DNA for expression of human orexin type 2 receptor (pcDNA3.1(+)/hOX2R) was cloned. The plasmid DNA was introduced into CHO-K1 cell by an electroporation method, and human orexin type 2 receptor expressing clone cells were obtained by limiting dilution method by using G418 drug resistance as a selection marker.
CHO cells forcibly expressing human OX2 receptor were seeded in each well of 384 well black transparent bottom plate (BD Falcon) at 10,000 cells/well, and cultured for one day in a 5% CO2 incubator at 37° C. After removal of the medium in the cell plate, assay buffer A containing a calcium indicator (HBSS (Thermo Fisher Scientific), 20 mM HEPES (Thermo Fisher Scientific), 0.1% BSA (Sigma-Aldrich), 2.5 μg/mL Fluo-4 AM (DOJINDO Chemical), 0.08% Pluronic F127 (DOJINDO Chemical), 1.25 mM probenecid (DOJINDO Chemical)) was added at 30 μL/well. The plate was stood for 30 min in a 5% CO2 incubator at 37° C., and further stood at room temperature for 30 min. A test compound prepared by diluting with assay buffer B (HBSS, 20 mM HEPES, 0.1% BSA) was added at 10 μL/well, and the fluorescence value was measured by FDSSμCELL (Hamamatsu Photonics K.K.) every one sec for 1 min, and thereafter every two sec for […]. The activity (%) of the test compound was calculated assuming that variation in the fluorescence value when DMSO was added instead of the test compound was 0%, and variation in the fluorescence value when orexin A (human) (PEPTIDE INSTITUTE, INC.) was added at the final concentration of 10 nM was 100%.

Row | OX2R agonist activity (3 μM, %) | Structure (SMILES)
1 | 97% | CCS(=O)(=O)NC(C)[C@@H]1[C@H](F)CN1C(=O)[C@@H]1C[C@@]1(F)c1ccccc1-c1c(F)cccc1F (stereo partly drawn) [Example 416, N-[(1R)-1-{(2R,3R)-1-[(1S,2S)-2-(2′,6′-difluoro[1,1′-biphenyl]-2-yl)-2-fluorocyclopropane-1-carbonyl]-3-fluoroazetidin-2-yl}ethyl]ethanesulfonamide, or N-[(1S)-1-{(2R,3R)-1-[(1S,2S)-2-(2′,6′-difluoro[1,1′-biphenyl]-2-yl)-2-fluorocyclopropane-1-carbonyl]-3-fluoroazetidin-2-yl}ethyl]ethanesulfonamide]
2 | 95% | O=C([C@@H]1C[C@@]1(F)c1ccc(F)cc1-c1c(F)cccc1F)N1C[C@@H](F)[C@H]1CNS(=O)(=O)CBr [Example 431, 1-bromo-N-({(2R,3R)-3-fluoro-1-[(1S,2S)-2-fluoro-2-(2′,5,6′-trifluoro[1,1′-biphenyl]-2-yl)cyclopropane-1-carbonyl]azetidin-2-yl}methyl)methanesulfonamide]
3 | 100% | CN(C)S(=O)(=O)N[C@H]1CCCN(C(=O)[C@@H]2C[C@H]2c2c(F)cccc2-c2c(F)cccc2F)C1 [Example 312, N,N-dimethyl-N′-{(3S)-1-[(1R,2R)-2-(2′,3,6′-trifluoro[1,1′-biphenyl]-2-yl)cyclopropane-1-carbonyl]piperidin-3-yl}sulfuric diamide]
4 | 89% | CS(=O)(=O)NC1CCN(C(=O)C2CC2c2sccc2-c2c(F)cccc2F)C1 (racemic) [Example 235, a mixture of rac-N-[(3R)-1-{(1R,2R)-2-[3-(2,6-difluorophenyl)thiophen-2-yl]cyclopropane-1-carbonyl}pyrrolidin-3-yl]methanesulfonamide and rac-N-[(3S)-1-{(1R,2R)-2-[3-(2,6-difluorophenyl)thiophen-2-yl]cyclopropane-1-carbonyl}pyrrolidin-3-yl]methanesulfonamide]
5 | 92% | CC1(NS(C)(=O)=O)CN(C(=O)[C@@H]2C[C@@]2(F)c2ccccc2-c2c(F)cccc2F)CC1(F)F (stereo partly drawn) [Example 375, N-{(3R)-1-[(1S,2S)-2-(2′,6′-difluoro[1,1′-biphenyl]-2-yl)-2-fluorocyclopropane-1-carbonyl]-4,4-difluoro-3-methylpyrrolidin-3-yl}methanesulfonamide, or N-{(3S)-1-[(1S,2S)-2-(2′,6′-difluoro[1,1′-biphenyl]-2-yl)-2-fluorocyclopropane-1-carbonyl]-4,4-difluoro-3-methylpyrrolidin-3-yl}methanesulfonamide]
6 | 103% | CS(=O)(=O)NC[C@@H]1CCN1C(=O)C1(CO)CC1c1ccccc1-c1c(F)cccc1F (stereo partly drawn) [Example 365, N-({(2S)-1-[(1R,2S)-2-(2′,6′-difluoro[1,1′-biphenyl]-2-yl)-1-(hydroxymethyl)cyclopropane-1-carbonyl]azetidin-2-yl}methyl)methanesulfonamide, or N-({(2S)-1-[(1S,2R)-2-(2′,6′-difluoro[1,1′-biphenyl]-2-yl)-1-(hydroxymethyl)cyclopropane-1-carbonyl]azetidin-2-yl}methyl)methanesulfonamide]
7 | 88% | C[C@H]1CN(C(=O)[C@@H]2C[C@@]2(F)c2ccccc2-c2c(F)cccc2F)C[C@@H](CNS(C)(=O)=O)O1 [Example 364, N-({(2S,6S)-4-[(1S,2S)-2-(2′,6′-difluoro[1,1′-biphenyl]-2-yl)-2-fluorocyclopropane-1-carbonyl]-6-methylmorpholin-2-yl}methyl)methanesulfonamide]
8 | 98% | O=C([C@@H]1C[C@H]1c1ccccc1-c1c(F)cccc1F)N1CCO[C@H](CNS(=O)(=O)N2CCC2)C1 [Example 338, N-({(2S)-4-[(1R,2R)-2-(2′,6′-difluoro[1,1′-biphenyl]-2-yl)cyclopropane-1-carbonyl]morpholin-2-yl}methyl)azetidine-1-sulfonamide]

Second part, the compound before the results:

Row | Structure (SMILES) | OX2R agonist activity (3 μM, %)
9 | CS(=O)(=O)NC1CN(C(=O)C2CC2c2c(F)cccc2-c2c(F)cccc2F)CC1(F)F (stereo not drawn) [Example 226, N-{4,4-difluoro-1-[2-(2′,3,6′-trifluoro[1,1′-biphenyl]-2-yl)cyclopropane-1-carbonyl]pyrrolidin-3-yl}methanesulfonamide optical isomer] | 104%
10 | CS(=O)(=O)N[C@@H]1CN(C(=O)C2CC2c2ccccc2-c2c(F)cccc2F)CC[C@@H]1F (stereo partly drawn) [Example 216, N-{(3R,4S)-1-[(1R,2R)-2-(2′,6′-difluoro[1,1′-biphenyl]-2-yl)cyclopropane-1-carbonyl]-4-fluoropiperidin-3-yl}methanesulfonamide, or N-{(3R,4S)-1-[(1S,2S)-2-(2′,6′-difluoro[1,1′-biphenyl]-2-yl)cyclopropane-1-carbonyl]-4-fluoropiperidin-3-yl}methanesulfonamide] | 99%
11 | CS(=O)(=O)NC1CCCCN(C(=O)C2CC2c2sccc2-c2c(F)cccc2F)C1 (racemic) [Example 233, a mixture of rac-N-[(3R)-1-{(1R,2R)-2-[3-(2,6-difluorophenyl)thiophen-2-yl]cyclopropane-1-carbonyl}azepan-3-yl]methanesulfonamide and rac-N-[(3S)-1-{(1R,2R)-2-[3-(2,6-difluorophenyl)thiophen-2-yl]cyclopropane-1-carbonyl}azepan-3-yl]methanesulfonamide] | 80%
12 | Cc1cccc(C2CC2C(=O)N2CCCC(NS(C)(=O)=O)C2)c1-c1ccccc1 (racemic) [Example 89, a mixture of rac-N-{(3R)-1-[(1R,2R)-2-(6-methyl[1,1′-biphenyl]-2-yl)cyclopropane-1-carbonyl]piperidin-3-yl}methanesulfonamide and rac-N-{(3S)-1-[(1R,2R)-2-(6-methyl[1,1′-biphenyl]-2-yl)cyclopropane-1-carbonyl]piperidin-3-yl}methanesulfonamide] | 64%
13 | CC1CCN(C(=O)C2CC2c2ccccc2-c2c(F)cccc2F)CCC1NS(C)(=O)=O (racemic) [Example 186] | 101%
14 | CS(=O)(=O)NC1CCCN(C(=O)C2CC2c2ccc(F)cc2-c2c(F)cccc2F)C1 (racemic) [Example 152, a mixture of rac-N-{(3R)-1-[(1R,2R)-2-(2′,5,6′-trifluoro[1,1′-biphenyl]-2-yl)cyclopropane-1-carbonyl]piperidin-3-yl}methanesulfonamide and rac-N-{(3S)-1-[(1R,2R)-2-(2′,5,6′-trifluoro[1,1′-biphenyl]-2-yl)cyclopropane-1-carbonyl]piperidin-3-yl}methanesulfonamide] | 95%
15 | CS(=O)(=O)NC1CCN(C(=O)C2CC2c2c(F)cccc2-c2c(F)cccc2F)C1 (racemic) [Example 26, a mixture of rac-N-{(3R)-1-[(1R,2R)-2-(2′,3,6′-trifluoro[1,1′-biphenyl]-2-yl)cyclopropane-1-carbonyl]pyrrolidin-3-yl}methanesulfonamide and rac-N-{(3S)-1-[(1R,2R)-2-(2′,3,6′-trifluoro[1,1′-biphenyl]-2-yl)cyclopropane-1-carbonyl]pyrrolidin-3-yl}methanesulfonamide] | 104%
16 | CS(=O)(=O)N[C@H]1CCCCN(C(=O)C2CC2c2ccccc2-c2c(F)cccc2F)C1 (mixture of isomers) [Example 184, a mixture of N-{(3S)-1-[(1R,2R)-2-(2′,6′-difluoro[1,1′-biphenyl]-2-yl)cyclopropane-1-carbonyl]azepan-3-yl}methanesulfonamide and N-{(3S)-1-[(1S,2S)-2-(2′,6′-difluoro[1,1′-biphenyl]-2-yl)cyclopropane-1-carbonyl]azepan-3-yl}methanesulfonamide] | 108%
17 | O=C(C1CC1c1ccccc1-c1c(F)cccc1F)N1CCC[C@H](NS(=O)(=O)CBr)C1 (mixture of isomers) [Example 213, a mixture of 1-bromo-N-{(3S)-1-[(1R,2R)-2-(2′,6′-difluoro[1,1′-biphenyl]-2-yl)cyclopropane-1-carbonyl]piperidin-3-yl}methanesulfonamide and 1-bromo-N-{(3S)-1-[(1S,2S)-2-(2′,6′-difluoro[1,1′-biphenyl]-2-yl)cyclopropane-1-carbonyl]piperidin-3-yl}methanesulfonamide] | 100%
